Literature values, collected in patent publication US20180185509A1, “AMATOXIN-CONJUGATES WITH IMPROVED LINKAGES” (Heidelberg Pharma GmbH, priority 2011, published 2018).

Target: RNA-polymerase II (Homo sapiens, UniProt P24928)
Conditions: read-out: KD of the complex between amanitin and RNA-polymerase II

In the case of amanitin, the Kd is given as 3 nM.
